The record followed here is ChEMBL document CHEMBL1914429, “Potent and selective 2-naphthylsulfonamide substituted hydroxamic acid inhibitors of matrix metalloproteinase-13” (Bioorg Med Chem Lett, 2011).

In series [1] the target is 72 kDa type IV collagenase (Homo sapiens, UniProt P08253).
Series [2] is described as follows: AUC in rat at 5 mg/kg, po. It counts as ADME, organism-based. Also noted: dose 5 mg/kg, route oral. As to conditions: plasma.
The nature of series [3]: Half life in rat at 5 mg/kg, po and 1 mg/kg, iv. It counts as ADME, organism-based. The following applies: in vivo.
Series [4] can be described thus: Clearance in rat at 5 mg/kg, po and 1 mg/kg, iv. In kind it is ADME, organism-based. As to conditions: in vivo.
Series [5] in a line: Oral bioavailability in rat at 5 mg/kg. The following applies: in vivo. In kind it is ADME, organism-based.

Sequence of 72 kDa type IV collagenase (P08253 whole entry): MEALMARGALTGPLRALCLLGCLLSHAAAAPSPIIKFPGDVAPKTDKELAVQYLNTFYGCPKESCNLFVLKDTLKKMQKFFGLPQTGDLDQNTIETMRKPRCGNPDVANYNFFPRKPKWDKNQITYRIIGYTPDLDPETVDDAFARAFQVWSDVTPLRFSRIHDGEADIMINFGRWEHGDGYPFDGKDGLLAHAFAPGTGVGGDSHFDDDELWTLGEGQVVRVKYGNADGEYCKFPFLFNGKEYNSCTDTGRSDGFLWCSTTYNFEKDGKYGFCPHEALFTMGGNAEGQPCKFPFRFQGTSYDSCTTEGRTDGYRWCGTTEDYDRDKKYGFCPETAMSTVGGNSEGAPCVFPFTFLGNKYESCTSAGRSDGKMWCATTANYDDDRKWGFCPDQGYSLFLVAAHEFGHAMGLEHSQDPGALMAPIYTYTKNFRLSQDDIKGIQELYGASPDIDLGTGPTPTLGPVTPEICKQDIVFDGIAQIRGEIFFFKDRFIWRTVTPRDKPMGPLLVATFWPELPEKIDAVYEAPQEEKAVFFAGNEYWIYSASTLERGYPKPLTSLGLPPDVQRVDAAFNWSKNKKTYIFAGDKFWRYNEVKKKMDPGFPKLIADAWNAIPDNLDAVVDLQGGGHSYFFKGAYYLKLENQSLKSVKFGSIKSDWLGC

Usually IC50 stands for the concentration that inhibits the measured activity by half. Higher therefore signals weaker potency in that assay. The compound `CC(C)CCN([C@@H](C(=O)NO)C(C)C)S(=O)(=O)c1ccc2c(c1)OCCO2` came in with an IC50 in series [1] of 3 nM.

With `CC(C)CN([C@@H](C(=O)NO)C(C)C)S(=O)(=O)c1ccc2ccccc2c1`, the IC50 in series [1] is 308 nM.

What is called AUC is concentration integrated over time. Higher therefore signals more exposure. A word on the half-life: it is the time needed for the level to fall by half in the phase considered. A lower half-life goes with fast loss. As a reminder, the bioavailability is the share of a dose that reaches the circulation, judged against a reference dose that is usually intravenous. On to `CC(C)CCN([C@@H](C(=O)NO)C(C)C)S(=O)(=O)c1ccc2ccccc2c1`, for which the AUC in series [2] came to 1.5 µM·h. Besides, the half-life in series [3] is 5.7 h. Further, the clearance in series [4] is 40 mL/min/kg. For the same compound, the bioavailability in series [5] is 23.8%.

For the compound `CC(C)[C@H](C(=O)NO)N(CCc1ccccc1)S(=O)(=O)c1ccc2ccccc2c1`, the AUC in series [2] stood at 0.45 µM·h. The clearance in series [4] was 55 mL/min/kg.

In series [2], `CC(C)[C@H](C(=O)NO)N(Cc1ccncc1)S(=O)(=O)c1ccc2ccccc2c1` registered an AUC of 0.32 µM·h. Further, the clearance in series [4] is 122 mL/min/kg.

Take `CC(C)[C@H](C(=O)NO)N(Cc1cccnc1)S(=O)(=O)c1ccc2ccccc2c1`: in series [2], the AUC was determined as 0.55 µM·h. The clearance in series [4] is 107 mL/min/kg.

Turning to `CC(C)[C@H](C(=O)NO)N(CCN(C)C)S(=O)(=O)c1ccc2ccccc2c1`, in series [2], the AUC was 0.27 µM·h. Moreover, the clearance in series [4] is 233 mL/min/kg.

`CC(C)CCN([C@H](CO)C(=O)NO)S(=O)(=O)c1ccc2ccccc2c1` gave an AUC in series [2] of 2.4 µM·h. The clearance in series [4] was 45 mL/min/kg.

`CC(C)CCN([C@@H](C(=O)NO)C(C)(C)C)S(=O)(=O)c1ccc2ccccc2c1`: in series [2], the AUC was 7.2 µM·h. Besides, the clearance in series [4] was 26.7 mL/min/kg.

For the compound `CC(C)CCN([C@@H](C(=O)NO)C(C)O)S(=O)(=O)c1ccc2ccccc2c1` (stereo not given in full), the AUC in series [2] was 3.1 µM·h. Further, in series [4], the clearance was 55 mL/min/kg.

Consider `CC(C)CCN([C@@H](C(=O)NO)C(C)C)S(=O)(=O)c1ccc2ccccc2n1`, for which the AUC in series [2] is 0.13 µM·h. In series [4], this compound had a clearance of 91.7 mL/min/kg. The compound also returned an IC50 in series [1] of 2050 nM.

Compound `CC(C)CCN([C@@H](C(=O)NO)C(C)C)S(=O)(=O)c1ccc2ncccc2c1` gave an AUC in series [2] of 4.6 µM·h. The clearance in series [4] was 18.3 mL/min/kg.

The compound `CC(C)CCN([C@@H](C(=O)NO)C(C)C)S(=O)(=O)c1ccc2sccc2c1` yielded an AUC in series [2] of 1.5 µM·h. In series [4], the clearance is 118 mL/min/kg. This compound registered an IC50 in series [1] of 16 nM.

Take `CC(C)CCN([C@@H](C(=O)NO)C(C)C)S(=O)(=O)c1ccc2c(c1)CCO2`: in series [1], the IC50 came to 10 nM.

As for `COc1ccc(S(=O)(=O)N(CCC(C)C)[C@@H](C(=O)NO)C(C)C)cc1OC`, inhibition in series [1] was half-maximal at 30100 nM (IC50).
